Test results published in patent publication US11077088B2, “Composition and apparatus for treatment of chemotherapy induced alopecia” (Paxman Coolers Ltd, priority 2016, dated 2021).

Tested on: HaCaTa cells

SMILES	cytotoxicity of the drug in keratinocytes	protection from drug-induced toxicity (Absorbance units) (0.625 mM NAC plus cooling at 22° C., extremely high doses of 4-OH-CP (FIG. 5))	cytoprotection from combinatorial drug treatment (AC), versus cooling alone (0.625 mM NAC plus cooling at 26° C. or 22° C., sequential doxorubicin 3 μg/ml (1 h) and 4-OH-CP 5 μg/ml (1 h) (FIG. 7))	cytoprotection of cooling at 26° C. with inhibition of ROS, compared with 22° C. at same CP concentration (0.625 mM NAC plus cooling at 26° C., 4-OH-CP (FIG. 4 vs FIG. 3))	protection from drug-induced toxicity (% relative to control) (0.625 mM NAC plus cooling at 26° C., extremely high doses of doxorubicin (FIG. 6))
COc1cccc2c1C(=O)c1c(O)c3c(c(O)c1C2=O)C[C@@](O)(C(=O)CO)C[C@@H]3O[C@H]1C[C@H](N)[C@H](O)[C@H](C)O1 [doxorubicin]	nearly total cytotoxicity (death)				
CC(=O)N[C@@H](CS)C(=O)O [NAC, N-acetyl-cysteine]		strikingly high levels of protection	better cytoprotection	highly cytoprotective	strikingly high levels of protection
